“And” between values parts separate entries of the source, which are not always exact repeats. Equal values may be shown once.
Key:
Format in all cases: in vivo, rat
SHR and WKY rats [1] = test: MAP after 7 days of intraperitoneal Tempol; details: Tempol 250 mg/kg/day intraperitoneally for 7 days
SHR = test: Role of NO in the MAP response to constant Tempol infusion (L-NAME or norepinephrine pretreatment)
SHR and WKY rats [2] = test: Maximal TGF responses during retrograde microperfusion of Tempol into the macula densa/JGA (Series 6); details: for Percentage reduction in TGF normalized to the initial response: Tempol 10^−3 M retrograde; for PSF difference 0-40 nl·min^−1 (maximal TGF response) / PSF during LH perfusion at 0 nl·min^−1 / PSF during LH perfusion at 40 nl·min^−1: retrograde perfusion, ATF+Tempol 10^−3 M, mean ± SEM
Procedure: Series 4. Effects of inhibition of bNOS on maximal TGF responses in SHR and WKY. These experiments further examined the SHR hypertension model and whether the enhanced TGF of the SHR kidney is due to a blunted generation of NO by bNOS in the macula densa or whether NOS inhibition is diminished in the SHR model. Groups of SHR and age-matched WKY rats were prepared for in vivo micropuncture, microperfusion, and TGF studies as described in detail previously. In brief, animals were anesthetized with thiobarbital (Inactin, 100 mg·kg^−1; Research Biochemicals, Inc., Natick, Mass.). A catheter was placed in a jugular vein for fluid infusion and in a femoral artery for recording of mean arterial pressure (MAP) from the electrically damped output of a pressure transducer (Statham, Inc.). A tracheotomy tube was inserted and the animals were allowed to breathe spontaneously. The left kidney was exposed by a flank incision, cleaned of connective tissue, and stabilized in a Lucite cup. This kidney was bathed in 0.154 M NaCl maintained at 37° C. After completion of surgery, rats were infused with a solution of 0.154 M NaCl and 1% albumin at 1.5 ml·h^−1 to maintain a euvolemic state. Micropuncture studies were begun after 60 min for stabilization.
For orthograde microperfusion of the loop of Henle (LH), a micropipette (8 μm OD) containing artificial tubular fluid (ATF) stained with FD&C dye was inserted into a late proximal tubule. Injections of the colored ATF identified the nephron and the direction of flow. An immobile bone wax block was inserted into this micropuncture site via a micropipette (10-15 μm) and connected to a hydraulic drive (Trent Wells, Inc., LaJolla, Calif.) to halt tubular fluid flow. A perfusion micropipette (6-8 μm) containing ATF and test compounds or vehicle was inserted into the proximal tubule downstream from the wax block and connected to a nanoliter perfusion pump (WPI, Sarasota, Fla.). A pressure micropipette (1-2 μm) was inserted into the proximal tubule upstream from the wax block to measure proximal stop flow pressure (PSF). Changes in PSF are an index of changes in glomerular capillary hydraulic pressure (PGC). Measurements of PSF were made in each nephron during zero loop perfusion and during perfusion with ATF at 40 nl·min^−1, which produces a maximal TGF response, defined as the difference between PSF values recorded during perfusion of the loop with ATF at 0 and 40 nl·min^−1.
Groups of SHR (n=5) and WKY rats (n=5) were prepared for studies of retrograde microperfusion into the macula densa. […] Therefore, these studies of TGF were conducted with retrograde microperfusion from the early distal (ED) tubule into the macula densa. After identifying the nephron with FD&C green, the last proximal convolution was vented and a wax block placed upstream. A micropipette (8-10 μm OD) was inserted into the ED tubule upstream from an oil droplet. The loop of Henle was perfused retrogradely with perfusate entering the macula densa segment directly at 0 and 20 nl·min^−1. This represents a maximal activation for TGF by retrograde perfusion. […] Therefore, this dose was used thereafter in the test animals (Dosage/kg would usually be lower in larger animals). Comparisons were made of maximum TGF responses obtained during perfusion of ATF+vehicle (ethanol) and ATF+Tempol.

SHR and WKY rats [3] = test: MAP during constant intravenous infusion of Tempol in anesthetized rats (dose-response); details: Tempol 1,800 μmol·kg^−1·h^−1 i.v. infusion, 30 minutes
SHR and WKY rats [4] = test: Two weeks of oral Tempol in the drinking water: MAP, HR, renal hemodynamics, excretion, 8-ISO; details: Tempol 1 mM in drinking water
Procedure: Thereafter, WKY and SHR were anesthetized with thiobutabarbital (100 mg/kg, i.p., Inactin, Research Biochemicals International) and maintained at 37° C. on a servo-controlled heated rodent operating table. A tracheostomy was performed with polyethylene PE-240 tubing and the left jugular vein and carotid artery were cannulated with PE-50 tubing. A 1% albumin solution in 0.154 M NaCl was infused at 2 ml/h, i.v. to maintain a euvolemic state. A midline incision was made and the left renal artery was isolated. A blood flow probe was placed around the renal artery and connected to a transit-time blood flowmeter (IRB, Transonic Systems, Inc.). We have previously shown that this method of measuring real-time changes in renal blood flow (RBF) is valid in the rat. Mean arterial pressure (MAP) and heart rate (HR) were continuously recorded from the carotid artery using a Statham pressure transducer (model P23, Gould Instruments) and MACLab data acquisition software. Glomerular filtration rate (GFR) was determined from the clearance of [^3H]-inulin. Following surgery and a 60 min equilibration period, MAP, HR, GFR, and RBF were measured over 30 minutes and the data was averaged.

Structure (SMILES): CC1(C)CC(O)CC(C)(C)N1[O] [Tempol, 4-hydroxy-2,2,6,6-tetramethyl-1-piperidinyloxy]
- MAP after treatment (SHR and WKY rats [1]; SHR, from 133±2, p<0.01): 120±3 mm Hg
- Effect on MAP (SHR and WKY rats [1]; WKY): no effect
- Decrease in MAP (SHR; SHR infused with norepinephrine, Tempol infusion): 14%
- MAP during Tempol infusion (SHR; SHR infused with norepinephrine, Tempol infusion, P<0.05): 161±7 mm Hg
- MAP during Tempol infusion (SHR; SHR pretreated with L-NAME, Tempol infusion 30 minutes, unchanged): 186±4 mm Hg
- MAP (SHR; SHR, saline vehicle pretreatment, Tempol infusion 180 μmol·kg^−1·min^−1 (so in the source) for 30 minutes): 121±17 mm Hg
- Decrease in MAP (SHR; SHR, saline vehicle pretreatment, Tempol infusion for 30 minutes, P<0.05): 32%
- Percentage reduction in TGF normalized to the initial response (SHR and WKY rats [2]; SHR): −26±2%
- PSF difference 0-40 nl·min^−1 (maximal TGF response) (SHR and WKY rats [2]; SHR): 8.5 ± 0.8 mm Hg
- PSF during LH perfusion at 0 nl·min^−1 (SHR and WKY rats [2]; SHR): 40.8 ± 0.8 mm Hg
- PSF during LH perfusion at 40 nl·min^−1 (SHR and WKY rats [2]; SHR): 32.1 ± 0.9 mm Hg
- Percentage reduction in TGF normalized to the initial response (SHR and WKY rats [2]; WKY): −17±3%
- PSF difference 0-40 nl·min^−1 (maximal TGF response) (SHR and WKY rats [2]; WKY): 6.7 ± 0.4 mm Hg
- PSF during LH perfusion at 0 nl·min^−1 (SHR and WKY rats [2]; WKY): 34.7 ± 0.8 mm Hg
- PSF during LH perfusion at 40 nl·min^−1 (SHR and WKY rats [2]; WKY): 28.0 ± 0.9 mm Hg
- Maximally effective dose (preliminary studies, effects reversible) (SHR and WKY rats [2]; retrograde microperfusion into the macula densa): 10^−3 M
- MAP (SHR and WKY rats [3]; SHR): 72±10 mm Hg
- MAP (SHR and WKY rats [3]; WKY): 71±3 mm Hg
- RBF (SHR and WKY rats [4]; SHR, 2 weeks): 5.6 ± 0.5 mL/min
- RVR (SHR and WKY rats [4]; SHR, 2 weeks): 26.4 ± 2.6 mm Hg/ml/min
- UNaV (SHR and WKY rats [4]; SHR, 2 weeks): 2.1 ± 0.2 mmol/24 hr
- UV (SHR and WKY rats [4]; SHR, 2 weeks): 15.2 ± 1.7 ml/24 hr
- Decrease in RVR (tendency, not significant) (SHR and WKY rats [4]; SHR, two weeks): 16%
- GFR (SHR and WKY rats [4]; SHR, two weeks): 1.9 ± 0.3 mL/min and 2.0 ± 0.2 mL/min
- Heart rate (SHR and WKY rats [4]; SHR, two weeks): 414±9 bts/min
- Increase in GFR (SHR and WKY rats [4]; SHR, two weeks): 17%
- MAP (SHR and WKY rats [4]; SHR, two weeks): 134±6 mm Hg
- UV8-ISO (8-iso-prostaglandin F2α excretion) (SHR and WKY rats [4]; SHR, two weeks): 6.0±0.7 ng/24 hr
- Decrease in MAP compared to normal SHR (SHR and WKY rats [4]; SHR, two weeks, p<0.05): 18%
- Decrease in UV8-ISO (8-iso-prostaglandin F2α excretion) (SHR and WKY rats [4]; SHR, two weeks, p<0.05): 39%
- Body weight gain (SHR and WKY rats [4]; 2 weeks, WKY and SHR pooled): 66±3 g/14 days
- Food intake (SHR and WKY rats [4]; 2 weeks, WKY and SHR pooled): 24 ± 1 g/day
- Water intake (SHR and WKY rats [4]; 2 weeks, WKY and SHR pooled, p<0.05 vs control): 43 ± 3 mL/day
- GFR (SHR and WKY rats [4]; WKY, 2 weeks): 2.5 ± 0.4 mL/min
- RBF (SHR and WKY rats [4]; WKY, 2 weeks): 8.8 ± 0.9 mL/min
- RVR (SHR and WKY rats [4]; WKY, 2 weeks): 14.2 ± 1.4 mm Hg/ml/min
- UNaV (SHR and WKY rats [4]; WKY, 2 weeks): 2.4 ± 0.6 mmol/24 hr
- UV (SHR and WKY rats [4]; WKY, 2 weeks): 16.7 ± 2.3 ml/24 hr
- Heart rate (SHR and WKY rats [4]; WKY, two weeks): 373±8 bts/min
- MAP (SHR and WKY rats [4]; WKY, two weeks): 118±7 mm Hg
